Source: US5547971A, “Use of leflunomide for inhibiting interleukin 8” (priority 1993, dated 1996)

Columns and labels:
IL-8 = IL-8 synthesis and liberation induced by lipopolysaccharide in isolated human blood mononuclear cells (IL-8 in the supernatant, sandwich enzyme immuno test); assay type: cell-based; settings: for activity at 50 µM / activity at 100 µM: Homo sapiens, control without substance set at 100%, 37° C., 1 h, lipopolysaccharide-induced, read-out: IL-8 in the supernatant % +/- standard deviation; for activity at 50 µM: concentration 0.05 mmol/l; for activity at 100 µM: concentration 0.1 mmol/l; for effect on the IL-8 level / effect on the synthesis and liberation of cytokines from human blood cells: in words; for effect on the IL-8 level: experiments in Tab. 1
Description: 10 ml of freshly prepared human citrate blood were carefully underlaid with 15 ml of Lymphoprep^(R) (Molter GmbH, Heidelberg) and then centrifuged at 400 ×g for 40 min. at 20° C. The cell fraction which was visible as a white ring at the phase boundary was removed with the aid of a syringe, diluted 1:1 (v/v) with PM-16 buffer (from Serva Feinbiochemica GmbH & Co. KG, Heidelberg) and then centrifuged, as above, for 10 min. […] Using a cell counter (type IT, from Coulter Diagnostics, Krefeld), the cell suspension, which is composed of about 90% lymphocytes and 10% monocytes, was adjusted to about 5 million cells/mi. Cell viability was monitored before and after the inhibition experiments using the known lactate dehydrogenase method.
The synthesis and liberation of cellular IL-8 was induced by adding a solution of 500 ng of lipopolysaccharide (Salmonella abortus equi, Sigma GmbH, Deisenhofen) in 0.01 ml of dimethyl sulfoxide/water (1:10, v/v) to 0.48 ml of the above-described cell fraction. At the same time, a solution of leflunomide or leflunomide metabolite in 0.01 ml of dimethyl sulfoxide (for the final concentration in each case, see Tab. 1) was added to the cell fraction and the mixture was left at 37° C. for 1h in a commercially available incubator. After cooling down to 0° C., the samples were centrifuged for 1 min. in a bench centrifuge and in each case 0.025 ml aliquots of the supernatant were examined for their […] content using a "sandwich" enzyme immuno test kit (from Biermann GmbH, Bad Nauheim) in accordance with the manufacturer's instructions. The control values were determined without the addition of leflunomide or its metabolites and set at 100%.

[1] = Metabolism of leflunomide in the mononuclear cell test sample (HPLC); assay type: in vitro ADME, human; settings: blood mononuclear cells; under the conditions employed; human mononuclear cell fraction; read-out: half life of metabolism of leflunomide to its metabolites (converted)
mononuclear cells = test: as above; assay type: in vitro ADME, human; settings: in words; under the experimental conditions employed

| Structure (SMILES) | activity at 50 µM (IL-8) | activity at 100 µM (IL-8) | effect on the IL-8 level (IL-8) | effect on the synthesis and liberation of cytokines from human blood cells (IL-8) | half-life [1] | metabolism of leflunomide (mononuclear cells) |
| --- | --- | --- | --- | --- | --- | --- |
| C/C(O)=C(\C#N)C(=O)Nc1ccc(C(F)(F)F)cc1 [Leflunomide metabolite, N-(4-trifluoromethylphenyl)-2-cyano-3-hydroxycrotonamide] | 97% | 99% | practically no effect on the IL-8 level | does not exhibit this advantageous effect |  |  |
| Cc1oncc1C(=O)Nc1ccc(C(F)(F)F)cc1 [Leflunomide, N-(4-trifluoromethylphenyl)-5-methylisoxazole-4-carboxamide] | 83% | 61 ± 11% | IL-8 level is clearly lowered | strong inhibitory effect | ~10 h | no appreciable metabolism |
